In ChEMBL document CHEMBL4627339, “Structural motives controlling the binding affinity of 9,10-bis(methylpyridinium)anthracenes towards DNA” (Bioorg Med Chem, 2020):
Active and inactive are the calls of the source. The rule behind the calls is not given here.

Columns and labels:
Type in all cases: nucleic-acid assay
[1] = system: Calf thymus DNA; test: Binding affinity to calf thymus DNA assessed as hypochromism at 50 uM by UV-Vis spectroscopy relative to control; conditions: Bos taurus
[2] = system: Calf thymus DNA; test: Binding affinity to calf thymus DNA assessed as DNA intercalation by measuring helix stabilization by DNA melting studies based absorbance analysis; conditions: Bos taurus
[3] = system: Calf thymus DNA; test: Binding affinity to calf thymus DNA assessed as groove binding by measuring induced circular dichroism with negative signs around 370-380 nm by CD spectroscopy; conditions: Bos taurus
[4] = system: Calf thymus DNA; test: Binding affinity to calf thymus DNA assessed as groove binding by measuring blue-shift in maximum emission intensity of compound by fluorescence spectroscopy; conditions: Bos taurus
[5] = system: Poly(dA-dT)oligonucleotide; test: Binding affinity to poly(dA:dT) dsDNA (unknown origin) assessed as increase in fluorescence intensity by fluorescence spectroscopy
[6] = system: Calf thymus DNA; test: Binding affinity to calf thymus DNA assessed as minor groove binding by measuring rise in absorbance at melting temperature between 76 and 77 degC by DNA melting studies based absorbance analysis; conditions: Bos taurus
[7] = system: Calf thymus DNA; test: Binding affinity to calf thymus DNA assessed as bathochromic shift in maximum absorption at 50 uM by UV-Vis absorption spectroscopic method; conditions: Bos taurus
[8] = system: Calf thymus DNA; test: Binding affinity to calf thymus DNA assessed as binding constant by UV-Vis absorption spectroscopic method; conditions: Bos taurus
[9] = system: Poly(dA-dT)oligonucleotide; test: Binding affinity to poly(dA:dT) dsDNA (unknown origin) assessed as binding constant by fluorescence spectroscopy
[10] = system: Poly(dA-dT)oligonucleotide; test: Binding affinity to poly(dA:dT) dsDNA (unknown origin) assessed as red shift in absorption maxima by UV-Vis spectroscopy
[11] = system: Poly(dA-dT)oligonucleotide; test: Binding affinity to poly(dA:dT) dsDNA (unknown origin) assessed as increase in intensity with one ligand binding for two base pairs by UV-Vis spectroscopy
[12] = system: Calf thymus DNA; test: Binding affinity to calf thymus DNA assessed as loss of vibronic fine structure at 50 uM by UV-Vis absorption spectroscopic method; conditions: Bos taurus
[13] = system: Poly(dG-dC)oligonucleotide; test: Binding affinity to poly(dG:dC) dsDNA (unknown origin) assessed as red shift in absorption maxima by UV-Vis spectroscopy
[14] = system: Poly(dG-dC)oligonucleotide; test: Binding affinity to poly(dG:dC) dsDNA (unknown origin) assessed as increase in fluorescence intensity by fluorescence spectroscopy
[15] = system: Calf thymus DNA; test: Binding affinity to calf thymus DNA assessed as groove binding by measuring spectral changes up to compound:base pair concentration ratio of 1:39 in presence of 300 mM NaCl by UV-Vis spectroscopic method; conditions: Bos taurus

Activity [1] [%]	Activity [2]	Activity [3]	Activity [4]	Activity [5]	Activity [6]	Activity [7]	KB [8]	K [9] [×10⁵ /M]	Activity [10]	Activity [11]	Activity [12]	Activity [13]	Activity [14]	Activity [15]	SMILES
41	inactive	Active	Active	Active	Active	Active	1.8 ×10⁵ /M								C[n+]1cccc(-c2c3ccccc3c(-c3ccc[n+](C)c3)c3ccccc23)c1
41	inactive	Active	Active	Active	Active	Active	6.2 ×10⁴ /M	1							Cc1ccc2c(-c3cc[n+](C)cc3)c3ccccc3c(-c3cc[n+](C)cc3)c2c1
						inactive									c1ccc2c(-c3ccncc3)c3ccccc3c(-c3ccncc3)c2c1
66	inactive	inactive	Active	Active	Active	Active	7.3 ×10³ /M								C[n+]1ccc(-c2c3ccccc3c(-c3cc[n+](C)cc3)c3cc(C(C)(C)C)ccc23)cc1
74	inactive	Active	Active	Active	Active	Active	8.4 ×10⁴ /M	1.6	Active	Active	Active	inactive	inactive	Active	C[n+]1ccc(-c2c3ccccc3c(-c3cc[n+](C)cc3)c3ccccc23)cc1
56	inactive	Active	Active	Active	Active	Active	2.8 ×10⁵ /M								C[n+]1cc(-c2c3ccccc3c(-c3cc4ccccc4[n+](C)c3)c3ccccc23)cc2ccccc21
55	inactive	Active	Active	Active	Active	Active	1.2 ×10⁴ /M								CCc1ccc2c(-c3cc[n+](C)cc3)c3ccccc3c(-c3cc[n+](C)cc3)c2c1
		inactive	inactive	inactive		inactive									C[n+]1ccccc1-c1c2ccccc2c(-c2cccc[n+]2C)c2ccccc12
